Measurements as given in patent US10363284B2, “β-hairpin peptidomimetics” (POLYPHOR AG, priority 2012, dated 2019).
Positions of bridges follow the written chain, without caps; N, C: chain ends. Non-standard residues stand in square brackets, D forms with d. Residues, ends and D or L forms follow the SMILES beside them. dLys(iPr) = CC(C)NCCCC[C@@H](N)C(=O)O; Lys(iPr) = CC(C)NCCCC[C@H](N)C(=O)O; Orn(iPr) = CC(C)NCCC[C@H](N)C(=O)O; Ac3c = NC1(C(=O)O)CC1

Assay: Pharmacokinetic study (PK) after intravenous administration
Format: in vivo, male CD-1 mice
Conditions: mouse, i.v. 1 mg/kg; for AUC(0-inf) / Cmax / half-life / clearance / Vd: one-compartmental model; for clearance: read-out: CLiv (converted); for Vd: read-out: Vdis
Procedure: For the compounds of Ex. 1 and Ex. 2 pharmacokinetic studies after intravenous (i.v.) administration were performed.
30 grams (±20%) male CD-1 mice obtained from Charles River Laboratories Deutschland GmbH were used. The vehicle, phosphate buffered saline, was added to give a final concentration of 0.5 mg/mL of the compound. The volume was 2 mL/kg and the compound was injected to give a final intravenous dose of 1 mg/kg. Approximately 300-400 μL of blood was removed under light isoflurane anesthesia by cardiac puncture at predetermined time intervals (5, 15, 30 min and 1, 2, 3, 4, hours) and added to heparinized tubes. Plasma was removed from pelleted cells upon centrifugation and frozen at −80° C. prior to HPLC-MS analysis.
Aliquots of 50 μL each of mouse plasma of untreated aminals (“blank” mouse plasma) were spiked with known amounts of the compounds Ex. 1 and Ex. 2 in order to obtain 10 plasma calibration samples for each compound in the range 1-4000 ng/mL.
Aliquots of 50 μL each of mouse plasma from treated animals were used as plasma study samples.
All plasma samples were spiked with an appropriate internal standard and extracted with acetonitrile containing 2% formic acid. Supernatants were evaporated to dryness under nitrogen and the remaining solids reconstituted in water+0.2% formic acid/acetonitrile 95/5 (v/v).
Extracts were then analyzed by reverse-phase chromatography (Acquity HSS C18 SB, 100×2.1 mm, 1.8 μm column, Waters), using the following conditions: mobile phases: (A) water+0.1% formic acid/acetonitrile 95/5 (v/v), (B) aceto-nitrile/water+0.1% formic acid 95/5 (v/v), gradient: 1% (B) 0-0.1 min, 40% (B) 0.1-2.5. The detection and quantification was performed by mass spectrometry, with electrospray interface in positive mode and selective fragmentation of analytes (4000 Q Trap mass spectrometer, AB Sciex).
PK parameters were calculated by WinNonLin™ software version 5.3 (Pharsight-A Certara™ Company, Mountain View, Calif. 94041 USA) using a one-compartmental model analysis. PK parameters were determined by least-square fitting of the model to the experimental data.

[1] = male, CD-1, plasma, iv, read-out: Calc. Conc. (plasma)

SMILES | AUC(0-inf) (male, CD-1, plasma, iv) [ng·h/mL] | Cmax (male, CD-1, plasma, iv) [ng/mL] | half-life (male, CD-1, plasma, iv) [min] | clearance (male, CD-1, plasma, iv) [mL/min/kg] | Vd (male, CD-1, plasma, iv) [L/kg] | level at 0.083 h [1] [ng/mL] | level at 0.25 h [1] [ng/mL] | level at 0.5 h [1] [ng/mL] | level at 1 h [1] [ng/mL] | level at 2 h [1] [ng/mL] | Calc. Conc. (plasma) (time 3 h) | Calc. Conc. (plasma) (time 4 h) | level at 3 h (male, CD-1, plasma, iv, time 3 h, read-out: Calc. Conc. (plasma)) [ng/mL] | level at 4 h (male, CD-1, plasma, iv, time 4 h, read-out: Calc. Conc. (plasma)) [ng/mL]
CC(C)NCCCC[C@@H]1NC(=O)[C@H](CCC(N)=O)NC(=O)[C@H](Cc2ccc(O)cc2)NC(=O)[C@@H]2CSSC[C@H](NC(=O)[C@H](Cc3ccc(O)cc3)NC(=O)[C@H](Cc3c[nH]cn3)NC(=O)[C@H](Cc3ccc(O)cc3)NC(=O)[C@@H]3CCCN3C(=O)[C@@H](CCCCNC(C)C)NC1=O)C(=O)N[C@@H](CO)C(=O)N[C@@H](C)C(=O)N1CCC[C@@H]1C(=O)N[C@@H](CCCNC(C)C)C(=O)N[C@@H](CCCNC(=N)N)C(=O)N[C@@H](Cc1ccc(O)cc1)C(=O)N2 [Ex. 1, cyclo(-Tyr^1-His^2-Tyr^3-Cys^4-Ser^5-Ala^6-^DPro^7-Orn(iPr)^8-Arg^9-Tyr^10-Cys^11-Tyr^12-Gln^13-Lys(iPr)^14-^DLys(iPr)^15-Pro^16-), disulfide bond between Cys^4 and Cys^11] (cyclo(A[dP][Orn(iPr)]RYCYQ[Lys(iPr)][dLys(iPr)]PYHYCS); disulfide 6-15) | 1020 | 1880 | 24 | 16.4 | 0.532 | 1690 | 1050 | 749 | 385 | 61 | <LoQ | <LoQ | – | –
CC(C)NCCCC[C@@H]1NC(=O)[C@H](CCC(N)=O)NC(=O)[C@H](Cc2ccc(O)cc2)NC(=O)[C@@H]2CSSC[C@H](NC(=O)[C@H](Cc3ccc(O)cc3)NC(=O)[C@H](Cc3c[nH]cn3)NC(=O)[C@H](Cc3ccc(O)cc3)NC(=O)[C@@H]3CCCN3C(=O)[C@H]3CCCN3C1=O)C(=O)N[C@@H](CO)C(=O)NC1(CC1)C(=O)N1CCC[C@@H]1C(=O)N[C@@H](CCCNC(C)C)C(=O)N[C@@H](CCCNC(=N)N)C(=O)N[C@@H](Cc1ccc(O)cc1)C(=O)N2 [Ex. 2, cyclo(-Tyr^1-His^2-Tyr^3-Cys^4-Ser^5-Acc^6-^DPro^7-Orn(iPr)^8-Arg^9-Tyr^10-Cys^11-Tyr^12-Gln^13-Lys(iPr)^14-^DPro^15-Pro^16-), disulfide bond between Cys^4 and Cys^11] (cyclo(YHYCS[Ac3c][dP][Orn(iPr)]RYCYQ[Lys(iPr)][dP]P); disulfide 4-11) | 1460 | 1470 | 42 | 11.4 | 0.681 | 1250 | 1210 | 996 | 516 | 117 | – | – | 24 | 14
